Laboratory results reported in patent US20100159030A1, “METHODS FOR DETECTING AND MODULATING THE SENSITIVITY OF TUMOR CELLS TO ANTI-MITOTIC AGENTS AND FOR MODULATING TURMORGENICITY” (NewSouth Innovations Pty Limited, priority 2007, published 2010).
Like-named read-outs stand apart in the source and are kept apart here.

Key:
[1] = tested on: CCRF-CEM Leukaemia cells; type: cell-based; conditions: 2ME2-resistant sublines
Source text: The tubulin-binding agent 2-methoxyestradiol (2ME2) binds to β-tubulin near the colchicine-binding site, inhibits microtubule polymerization, and induces mitotic arrest. CCRF-CEM Leukaemia cells that display increasing resistance to 2ME2 were selected, and four of the highly 2ME2 resistant leukaemia sublines were chosen for detailed analysis.

[2] = tested on: NSCLC H460 cells; experiment: Drug-treated clonogenic assay (surviving fraction, ID50) on siRNA/shRNA-transfected cells; type: cell-based, Human; conditions: for IC50: Homo sapiens; for change in drug sensitivity (clonogenic survival): H460
Outline: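 Cells transfected with siRNA/shRNA for 24 h, plated (600 Calu-6 or 150 H460 cells/well) and after 4-6 h treated with anti-mitotic drugs for 72 h at 37 °C, then grown drug-free 7-10 days. Crystal-violet colonies counted; surviving fraction corrected for plating efficiency; ID50 = 50% colony reduction vs untreated, mean of ≥4 experiments.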

## CC(=O)O[C@H]1C(=O)[C@@]2(C)[C@H]([C@H](OC(=O)c3ccccc3)[C@]3(O)C[C@H](OC(=O)[C@H](O)[C@@H](NC(=O)c4ccccc4)c4ccccc4)C(C)=C1C3(C)C)[C@]1(OC(C)=O)CO[C@@H]1C[C@@H]2O [Paclitaxel, paclitaxel]
[1]
  cross-resistance of the 2ME2-resistant cells: not cross resistant
[2]; NCI-H460, Table 2, 27-mer βIII siRNA Sequence-8 H460 cells, read-out: ID50 ± SEM
  IC50: 1.7 ± 0.043 nM
[2]; NCI-H460, Table 2, 27-mer βIII siRNA Sequence-11 H460 cells, read-out: ID50 ± SEM
  IC50: 1.78 ± 0.07 nM
[2]; NCI-H460, Table 2, Ctrl-1 (27-mer control siRNA) H460 cells, read-out: ID50 ± SEM
  IC50: 2.89 ± 0.165 nM
[2]; NCI-H460, Table 2, mock-transfected H460 cells, read-out: ID50 ± SEM
  IC50: 2.63 ± 0.136 nM
[2]; NCI-H460, Table 3, H460 Ctrl clone 1, read-out: Paclitaxel ID50 ± SEM
  IC50: 2.75 ± 0.131 nM
[2]; NCI-H460, Table 3, H460 Ctrl clone 2, read-out: Paclitaxel ID50 ± SEM
  IC50: 2.83 ± 0.093 nM
[2]; NCI-H460, Table 3, H460 βIII shRNA clone 4, read-out: Paclitaxel ID50 ± SEM
  IC50: 1.36 ± 0.087 nM
[2]; NCI-H460, Table 3, H460 βIII shRNA clone 59, read-out: Paclitaxel ID50 ± SEM
  IC50: 1.78 ± 0.07 nM
[2]; NCI-H460, Table 3, H460 βIII shRNA clone 60, read-out: Paclitaxel ID50 ± SEM
  IC50: 1.58 ± 0.095 nM
[2]; Table 2, 27-mer βIII siRNA Sequence-8 H460 cells
  RS (relative sensitivity): (1.55, <0.0001***)
[2]; Table 2, 27-mer βIII siRNA Sequence-11 H460 cells
  RS (relative sensitivity): (1.42, 0.0001***)
[2]; Table 2, Ctrl-1 H460 cells
  RS (relative sensitivity): (0.91, NS)
[2]; Table 3, Ctrl clone 2 compared to ctrl clone 1
  RS (relative sensitivity): (0.97, NS)
[2]; Table 3, βIII shRNA clone 4 compared to ctrl clone 1
  RS (relative sensitivity): (2.03, <0.0001***)
[2]; Table 3, βIII shRNA clone 59 compared to ctrl clone 1
  RS (relative sensitivity): (1.55, <0.0001***)
[2]; Table 3, βIII shRNA clone 60 compared to ctrl clone 1
  RS (relative sensitivity): (1.74, <0.0001***)
[2]; class II β-tubulin siRNA knockdown vs controls
  change in drug sensitivity (clonogenic survival): did not significantly potentiate the cytotoxicity
[2]; class IVb β-tubulin siRNA knockdown vs controls
  change in drug sensitivity (clonogenic survival): did not significantly enhance the cytotoxicity
[2]; βIII-tubulin siRNA silencing vs controls
  change in drug sensitivity (clonogenic survival): significant increase in sensitivity
